The source of these data is ChEMBL document CHEMBL4840354, “Identification of Diarylurea Inhibitors of the Cardiac-Specific Kinase TNNI3K by Designing Selectivity Against VEGFR2, p38α, and B-Raf” (J Med Chem, 2021).

The structures appear in SMILES notation.

For data set [1], the target named is T1, Serine/threonine-protein kinase TNNI3K (Homo sapiens, UniProt Q59H18).
T1 sequence (Q59H18 whole entry): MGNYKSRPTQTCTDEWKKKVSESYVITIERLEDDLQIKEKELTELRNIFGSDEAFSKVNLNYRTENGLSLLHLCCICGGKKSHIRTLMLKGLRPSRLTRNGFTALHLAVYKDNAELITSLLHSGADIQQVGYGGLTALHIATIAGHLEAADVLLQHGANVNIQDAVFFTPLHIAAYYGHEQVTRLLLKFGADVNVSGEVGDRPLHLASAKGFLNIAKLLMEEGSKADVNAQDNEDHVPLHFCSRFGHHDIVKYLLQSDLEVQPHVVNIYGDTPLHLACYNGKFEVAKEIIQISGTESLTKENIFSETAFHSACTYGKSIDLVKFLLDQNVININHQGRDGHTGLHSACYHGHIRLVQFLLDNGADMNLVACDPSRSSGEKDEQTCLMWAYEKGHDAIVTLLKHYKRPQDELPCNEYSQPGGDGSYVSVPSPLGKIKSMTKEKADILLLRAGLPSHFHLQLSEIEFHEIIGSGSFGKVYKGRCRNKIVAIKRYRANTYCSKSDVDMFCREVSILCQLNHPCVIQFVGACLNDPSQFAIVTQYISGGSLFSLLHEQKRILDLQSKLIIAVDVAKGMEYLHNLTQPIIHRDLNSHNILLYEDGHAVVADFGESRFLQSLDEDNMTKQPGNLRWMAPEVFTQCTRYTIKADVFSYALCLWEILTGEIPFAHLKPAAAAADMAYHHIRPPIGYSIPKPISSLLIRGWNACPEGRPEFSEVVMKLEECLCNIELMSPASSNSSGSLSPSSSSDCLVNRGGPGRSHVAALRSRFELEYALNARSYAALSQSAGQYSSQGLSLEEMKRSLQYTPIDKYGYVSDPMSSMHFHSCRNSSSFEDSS
Briefly: Inhibition of TNNI3K (unknown origin).

In data set [2] the target is T1, Serine/threonine-protein kinase TNNI3K. Briefly: Inhibition of human myc-TNNI3K expressed in HEK-MSR2 cells assessed as reduction in TNNI3K autophosphorylation preincubated for 30 mins followed by pervanadate addition and measured after 20 mins by DELFIA. The data set is classed as cell-based.
Data set [3] addresses Vascular endothelial growth factor receptor 2 (Homo sapiens, UniProt P35968). Briefly: Inhibition of GST-6His tagged VEGFR2 (unknown origin) using biotin-aminohexyl-EEEEYFELVAKKKK-NH2 peptide substrate incubated for 90 mins by HTRF assay. (TR-FRET usually uses a lanthanide donor and a delayed reading to cut background.)
Data set [4] concerns the target Mitogen-activated protein kinase 14 (Homo sapiens, UniProt Q16539). Briefly: Inhibition of p38alpha (unknown origin).
For data set [5], the target named is Serine/threonine-protein kinase B-raf (Homo sapiens, UniProt P15056). Kind of data set: Inhibition of B-Raf (unknown origin).
The species named for data set [6] is Homo sapiens. Briefly: Selectivity index, ratio of IC50 for inhibition of VEGFR2 (unknown origin) to IC50 for inhibition of TNNI3K (unknown origin).
The species named for data set [7] is Homo sapiens. Briefly: Selectivity index, ratio of IC50 for inhibition of p38alpha (unknown origin) to IC50 for inhibition of TNNI3K (unknown origin).
Data set [8] is described as follows: Permeability of compound incubated for 2 hrs by liquid chromatography analysis. To be noted: read-out: permeability. The data set is classed as ADME.
Data set [9] can be described thus: Dose normalized AUC in po dosed rat administered as cassette dose. To be noted: in vivo. The data set is classed as ADME, organism-based.
Data set [10] in a line: Half life in po dosed rat administered as cassette dose. The data set is classed as ADME, organism-based. To be noted: in vivo.
Data set [11] deals with T1, Serine/threonine-protein kinase TNNI3K. Kind of data set: Binding affinity to full length human His-MBP-TNNI3K assessed as off-rate constant in presence of rhodamine green labeled GW805818X by fluorescence competitive binding assay.
The target of data set [12] is T2, Serine/threonine-protein kinase TNNI3K (Mus musculus, UniProt Q5GIG6).
T2 sequence (Q5GIG6 whole entry): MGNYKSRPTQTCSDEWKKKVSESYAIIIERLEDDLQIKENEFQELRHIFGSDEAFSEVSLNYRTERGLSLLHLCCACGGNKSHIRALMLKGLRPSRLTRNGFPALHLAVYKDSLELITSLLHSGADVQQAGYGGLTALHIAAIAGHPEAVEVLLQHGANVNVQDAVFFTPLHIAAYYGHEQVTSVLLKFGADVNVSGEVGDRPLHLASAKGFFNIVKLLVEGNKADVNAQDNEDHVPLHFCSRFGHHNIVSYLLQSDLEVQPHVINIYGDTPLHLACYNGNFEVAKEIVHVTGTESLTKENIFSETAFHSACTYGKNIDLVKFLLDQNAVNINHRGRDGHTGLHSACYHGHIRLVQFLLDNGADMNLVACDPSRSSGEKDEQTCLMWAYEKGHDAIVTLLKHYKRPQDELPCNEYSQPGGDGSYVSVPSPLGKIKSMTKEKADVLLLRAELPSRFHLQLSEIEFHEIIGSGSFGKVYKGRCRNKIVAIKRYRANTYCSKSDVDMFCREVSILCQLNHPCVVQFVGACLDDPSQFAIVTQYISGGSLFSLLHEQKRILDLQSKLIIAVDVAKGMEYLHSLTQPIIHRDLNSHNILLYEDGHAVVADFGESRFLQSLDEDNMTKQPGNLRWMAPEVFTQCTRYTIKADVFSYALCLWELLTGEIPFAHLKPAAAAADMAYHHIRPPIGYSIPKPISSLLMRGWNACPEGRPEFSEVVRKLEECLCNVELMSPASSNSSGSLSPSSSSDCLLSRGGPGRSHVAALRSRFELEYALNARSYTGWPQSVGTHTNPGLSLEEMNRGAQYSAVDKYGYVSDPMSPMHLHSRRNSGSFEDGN
Kind of data set: Binding affinity to full length mouse His-MBP-TNNI3K assessed as off-rate constant in presence of rhodamine green labeled GW805818X by fluorescence competitive binding assay.

Data set [13] deals with Voltage-gated inwardly rectifying potassium channel KCNH2 (Homo sapiens, UniProt Q12809). Briefly: Inhibition of human ERG expressed in HEK293 cells. The format is cell-based.
Data set [14] concerns the target T3, Serine/threonine-protein kinase TNNI3K (Homo sapiens) (UniProt Q59H18).
T3 sequence (whole entry): T1 sequence (Q59H18 whole entry)
Description: Binding affinity to full length human His-MBP-TNNI3K assessed as half life in presence of rhodamine green labeled GW805818X by fluorescence competitive binding assay

Data set [15] has as its target T4, Serine/threonine-protein kinase TNNI3K (Mus musculus) (UniProt Q5GIG6).
T4 sequence (whole entry): T2 sequence (Q5GIG6 whole entry)
Description: Binding affinity to full length mouse His-MBP-TNNI3K assessed as half life in presence of rhodamine green labeled GW805818X by fluorescence competitive binding assay

Chain of Vascular endothelial growth factor receptor 2 (P35968 whole entry): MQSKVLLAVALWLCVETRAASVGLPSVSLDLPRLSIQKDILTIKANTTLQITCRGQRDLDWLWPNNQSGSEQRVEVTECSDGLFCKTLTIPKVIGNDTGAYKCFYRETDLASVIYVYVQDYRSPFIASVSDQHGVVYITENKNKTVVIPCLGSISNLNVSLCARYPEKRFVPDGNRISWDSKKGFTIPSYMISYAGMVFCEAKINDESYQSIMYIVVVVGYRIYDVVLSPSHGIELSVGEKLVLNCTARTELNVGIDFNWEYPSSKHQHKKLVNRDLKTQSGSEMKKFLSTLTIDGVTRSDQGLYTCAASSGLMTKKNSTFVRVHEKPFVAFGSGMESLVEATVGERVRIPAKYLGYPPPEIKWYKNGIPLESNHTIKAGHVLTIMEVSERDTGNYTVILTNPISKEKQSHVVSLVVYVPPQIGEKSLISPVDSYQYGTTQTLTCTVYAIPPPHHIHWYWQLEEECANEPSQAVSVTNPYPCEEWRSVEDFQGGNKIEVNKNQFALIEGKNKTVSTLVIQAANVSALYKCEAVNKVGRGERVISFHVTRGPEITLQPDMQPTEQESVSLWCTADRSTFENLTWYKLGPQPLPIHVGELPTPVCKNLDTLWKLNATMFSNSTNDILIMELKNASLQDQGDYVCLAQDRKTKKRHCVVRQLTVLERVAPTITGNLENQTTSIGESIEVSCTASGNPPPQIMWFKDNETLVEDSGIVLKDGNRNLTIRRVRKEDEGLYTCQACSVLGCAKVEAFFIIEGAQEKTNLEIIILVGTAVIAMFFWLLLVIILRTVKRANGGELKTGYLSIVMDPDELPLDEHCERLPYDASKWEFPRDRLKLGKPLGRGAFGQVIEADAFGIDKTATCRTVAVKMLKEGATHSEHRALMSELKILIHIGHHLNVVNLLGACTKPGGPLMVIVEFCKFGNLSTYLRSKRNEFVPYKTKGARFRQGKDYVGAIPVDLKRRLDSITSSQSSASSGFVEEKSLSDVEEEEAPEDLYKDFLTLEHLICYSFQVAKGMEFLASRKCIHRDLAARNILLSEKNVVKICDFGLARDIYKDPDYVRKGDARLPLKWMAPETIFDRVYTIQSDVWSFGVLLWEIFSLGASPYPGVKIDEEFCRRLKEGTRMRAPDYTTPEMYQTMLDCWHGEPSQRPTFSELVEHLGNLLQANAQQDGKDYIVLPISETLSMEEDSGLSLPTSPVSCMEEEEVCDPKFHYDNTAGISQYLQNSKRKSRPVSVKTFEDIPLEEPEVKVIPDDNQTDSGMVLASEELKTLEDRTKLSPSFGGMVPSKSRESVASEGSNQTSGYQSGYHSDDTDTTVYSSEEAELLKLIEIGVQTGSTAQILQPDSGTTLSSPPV
Chain of Mitogen-activated protein kinase 14 (Q16539 whole entry): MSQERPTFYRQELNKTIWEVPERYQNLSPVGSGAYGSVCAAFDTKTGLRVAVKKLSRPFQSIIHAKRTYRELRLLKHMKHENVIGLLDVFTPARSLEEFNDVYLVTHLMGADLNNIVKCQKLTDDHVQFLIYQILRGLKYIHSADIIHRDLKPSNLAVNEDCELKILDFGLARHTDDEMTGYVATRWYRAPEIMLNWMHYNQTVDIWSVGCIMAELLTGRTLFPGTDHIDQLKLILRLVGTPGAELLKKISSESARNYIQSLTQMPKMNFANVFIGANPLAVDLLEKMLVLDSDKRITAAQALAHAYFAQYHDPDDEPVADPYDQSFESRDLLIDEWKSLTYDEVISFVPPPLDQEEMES
Chain of Voltage-gated inwardly rectifying potassium channel KCNH2 (Q12809 whole entry): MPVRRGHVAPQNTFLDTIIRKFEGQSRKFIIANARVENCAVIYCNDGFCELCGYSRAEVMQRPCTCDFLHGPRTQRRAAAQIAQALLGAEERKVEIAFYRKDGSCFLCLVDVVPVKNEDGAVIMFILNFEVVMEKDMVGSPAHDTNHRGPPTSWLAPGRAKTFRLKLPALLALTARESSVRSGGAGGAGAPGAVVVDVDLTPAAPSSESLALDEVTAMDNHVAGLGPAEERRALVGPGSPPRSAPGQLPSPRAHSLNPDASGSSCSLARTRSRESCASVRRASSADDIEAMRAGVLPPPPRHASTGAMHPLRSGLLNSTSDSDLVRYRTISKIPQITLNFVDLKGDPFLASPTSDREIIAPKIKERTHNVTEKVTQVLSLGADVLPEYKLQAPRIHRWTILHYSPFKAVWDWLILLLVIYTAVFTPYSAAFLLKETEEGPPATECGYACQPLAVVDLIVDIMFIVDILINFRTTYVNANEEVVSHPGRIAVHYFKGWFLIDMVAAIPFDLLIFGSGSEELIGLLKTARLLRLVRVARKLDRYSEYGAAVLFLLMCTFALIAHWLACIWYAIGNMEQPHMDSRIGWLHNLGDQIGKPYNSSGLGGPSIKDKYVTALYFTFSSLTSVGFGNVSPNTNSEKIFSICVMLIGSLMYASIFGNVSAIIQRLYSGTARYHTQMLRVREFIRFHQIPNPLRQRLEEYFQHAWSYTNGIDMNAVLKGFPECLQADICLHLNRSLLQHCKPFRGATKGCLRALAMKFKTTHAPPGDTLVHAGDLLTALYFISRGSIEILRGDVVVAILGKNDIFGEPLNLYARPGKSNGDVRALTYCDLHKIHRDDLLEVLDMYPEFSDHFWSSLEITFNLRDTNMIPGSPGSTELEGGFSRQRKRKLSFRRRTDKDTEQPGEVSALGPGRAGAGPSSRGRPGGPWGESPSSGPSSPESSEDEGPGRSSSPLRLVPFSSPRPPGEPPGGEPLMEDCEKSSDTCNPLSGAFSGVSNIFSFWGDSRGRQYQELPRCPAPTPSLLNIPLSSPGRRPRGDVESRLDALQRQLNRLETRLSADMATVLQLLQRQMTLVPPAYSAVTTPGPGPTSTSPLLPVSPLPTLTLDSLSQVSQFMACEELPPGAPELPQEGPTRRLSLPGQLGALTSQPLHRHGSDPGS
Chain of Serine/threonine-protein kinase B-raf (P15056 whole entry): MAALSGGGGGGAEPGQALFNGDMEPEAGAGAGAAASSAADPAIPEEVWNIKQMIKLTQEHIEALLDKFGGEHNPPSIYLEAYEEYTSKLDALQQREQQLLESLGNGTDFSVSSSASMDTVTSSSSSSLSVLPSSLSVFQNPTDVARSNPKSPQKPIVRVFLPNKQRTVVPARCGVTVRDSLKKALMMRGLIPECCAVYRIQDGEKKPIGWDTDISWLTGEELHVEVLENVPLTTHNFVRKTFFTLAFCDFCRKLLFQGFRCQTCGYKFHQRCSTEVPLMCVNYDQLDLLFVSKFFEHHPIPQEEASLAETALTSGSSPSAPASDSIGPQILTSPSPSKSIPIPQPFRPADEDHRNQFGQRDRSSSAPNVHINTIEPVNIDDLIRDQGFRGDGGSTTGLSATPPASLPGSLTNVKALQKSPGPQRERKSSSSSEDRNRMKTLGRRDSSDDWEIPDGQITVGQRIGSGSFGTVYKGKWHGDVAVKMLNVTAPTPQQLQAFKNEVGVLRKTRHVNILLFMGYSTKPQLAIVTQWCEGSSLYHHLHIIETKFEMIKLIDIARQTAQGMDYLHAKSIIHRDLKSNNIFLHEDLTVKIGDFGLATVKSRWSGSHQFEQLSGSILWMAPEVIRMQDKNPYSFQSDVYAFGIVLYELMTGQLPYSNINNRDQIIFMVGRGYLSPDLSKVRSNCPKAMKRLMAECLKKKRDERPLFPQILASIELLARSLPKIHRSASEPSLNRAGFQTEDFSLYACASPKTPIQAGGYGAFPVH

For `CNc1cc(Oc2c(Cl)cc(NC(=O)Nc3cccc(C(F)(F)F)c3)cc2Cl)ncn1`, the IC50 in data set [1] is 10 nM; in [2], 100 nM; in [3], 400 nM; in data set [4], 800 nM; in data set [5], above 2000 nM; in data set [13], above 31600 nM. Moreover, the Ratio IC50 stood at 40 in the data set filed under Homo sapiens [6] and 80 in the data set listed under Homo sapiens [7]. Besides, in data set [8], the Papp at 2 h was found to be 7.4 ×10⁻⁶ cm/s. Also, the AUC/dose in data set [9] was 3.8 kg·h/L. The half-life in data set [10] is 5.4 h. Besides, the inhibitory constant (Ki) is 0.54 nM in [11] and 13 nM in [12]. For the same compound, the T1/2 is 1.3 h in data set [14] and 0.417 h in data set [15].

The term IC50 denotes the concentration that gives 50% inhibition. The half-life is the time needed for the level to fall by half in the phase considered. A higher half-life goes with slow decline. As a reminder, the Ki is the dissociation constant of the complex between target and ligand, obtained from inhibition or displacement.
